Test results reported in US20240277695A1, “FOXO INHIBITORS FOR USE IN THE TREATMENT OF DISEASES CAUSED BY ABNORMAL PROCESSING OF TDP-43 AND/OR FUS PROTEINS” (Administración General de la Comunidad Autónoma de Euskadi, priority 2020, published 2024).
Entries after “also recorded” stand apart in the source; their conditions may differ.

What was measured:
[1] = test system: Drosophila flies with muscle-conditioned silencing of Caz or Tbph; assay: Climbing (locomotor activity) test in flies with muscle-conditioned silencing of Caz or Tbph; type: in vivo, Drosophila melanogaster; conditions: 30 μM; Caz- and Tbph-silenced flies; more pronounced in Tbph lines
From the text: (§1) FIG. 7. Foxo inhibition improves muscle function and lifespan in Drosophila flies with muscle-conditioned deficiency of TDP-43 or FUS. […] F, Caz or Tbph-silenced flies have reduced survival times, as indicated by Kaplan-Meier curves (left panel) and median lifespan (right panel) (n=100 flies per group). […] This effect was particularly noticeable in iCaz and iTbph^attp40) fly lines (n=100 flies per group). *p<0.05: **p<0.01, ***p<0.001.
(§2) After knowing that FoxO inhibition provides benefits to muscle cells in vitro, we wanted to further test the effects of targeting FoxO factors on muscle function under the context of TDP-43 or FUS loss-of-function in vivo. To that purpose, we generated various Drosophilamodels with muscle-conditioned silencing of either Cabeza (Caz) or Tbph genes, which are orthologs of human FUS or TARDBP, respectively. […] Drosophila has only one ortholog for mammalian FoxO factors, which is called foxo. Although the affinity of AS1842856 for Drosophila foxo has never been tested, the fact that FoxO DNA-binding sites, with which the inhibitor interacts, are well conserved among species, including Drosophila melanogaster (FIG. 7B) provides enough rationale to test its efficacy in Drosophila models.

[2] = test system: shTDP-43-treated myoblasts; assay: Glu/Asp and Glu/Gln metabolite ratios by HPLC-MS and 1H-NMR in silenced myoblasts; type: cell-based, human; conditions: 30 nM
From the text: One of the key endogenous factors that keep glycolytic flux ongoing is cytosolic NAD^+. In anaerobic muscles, malate-aspartate and glycerol-phosphate shuttles as well as glutaminolysis are main metabolic pathways that recycle cytosolic NAD+to support glycolysis (FIG. 3A). […] With respect malate-aspartate shuttle and glutaminolysis, TDP-43 silencing led to reduced levels of OGC1 (oxoglutarate carrier 1), GOT1 (glutamic-oxaloacetic transaminase), MDH1 (malate dehydrogenase), and ME1 (malic enzyme), but increased levels of glutaminase (FIG. 3B). […] We have also analyzed intermediate metabolites of malate-aspartate shuttle and glutaminolysis, including glutamate (Glu), glutamine (Gln) and aspartate (Asp), by means of HPLC-MS and ^1H-NMR, and calculated the ratios Glu/Asp and Glu/Gln to estimate fluxes of these reactions. […] In this sense, an abnormal glutaminolysis may account for the defects of NAD^+ recycling in FUS-silenced myoblasts.
We next explored the consequences of pharmacological or genetic inhibition of FoxO on metabolism and myogenesis in TDP-43 and FUS-silenced myoblasts. We treated all the different models of myoblasts with the compound AS1842856 at 30 nM during proliferation and let them differentiate, adding the compound at the same concentration every 2 days for 8 days. […]

[3] = test system: iTbph^pkk(108254) Drosophila model; assay: Adult pharate lethality / pupa eclosion assay; type: in vivo; conditions: 30 μM
Experimental: FIG. 8. […] A) Number of total pupas and the eclosioned ones were counted in different 5 tubes each group. […] T-test was performed ***p<0,001. Values are expressed as percentage mean+SD.
As mentioned in Example 6, iTbph^pkk(108254) Drosophila completed the metamorphosis from larvae to adult within the pupa (a phase known as pharate), but were not able to eclode from the pupa and, consequently, died. This feature is termed as adult pharate lethality and allowed us to perform assays with which to judge the efficacy of FoxO inhibition.

[4] = test system: Caz or Tbph-silenced flies; assay: Longevity assay in flies with muscle-conditioned silencing of Caz or Tbph; type: in vivo, Drosophila melanogaster; conditions: 30 μM, particularly iCaz and iTbph^attp40
From the text: as §1
We performed longevity assays to further characterize these fly models. Either of the Caz or Tbph-silenced flies manifested dramatic reductions of survival times when compared to control group, as indicated by Kaplan-Meier curves and median lifespan (FIG. 7F). […] This effect was particularly noticeable in iCaz and iTbph^attp40 fly lines (FIG. 7G).

[5] = test system: TDP-43 or FUS-silenced human immortalized myoblasts (cell line 8220); assay: Myogenic differentiation (MYHC-positive myotubes, differentiation index) of silenced myoblasts; type: cell-based; conditions: 30 nM
From the text: We then studied the effect of gene silencing on the myogenic process. Myogenesis was first induced by an established protocol consisting on medium replacement, in which myoblasts were exposed to differentiation medium two days after infection with lentiviral particles. However, TDP-43 and FUS knockdown myoblasts were not able to survive to the differentiating challenge. Then, we switched to a more physiologically-relevant myogenic scenario that consists on allowing spontaneous differentiation and fusion when myoblasts reach 100% confluence. Lentiviral particles of scramble shRNA, shTDP-43 or shFUS were added to the medium when […] myoblasts were at 30-40% confluence (FIG. 1D).
(§3) Myoblasts treated with control shRNA differentiated and formed MYHC-positive myotubes 2 days after reaching 100% confluence (FIG. 1I). However, TDP-43 and FUS knockdown affected the natural capacity of cultured myoblasts to fuse and form myotubes: shTDP-43-treated myoblasts remained undifferentiated for at least 2 days after reaching 100% confluence, and shFUS-treated myoblasts formed fewer myotubes (FIG. 1I). […] We then analyzed levels of MYOD and MYOG (Myogenin), two transcription factors that are required for myoblast commitment, differentiation and fusion, respectively.
We next explored the consequences of pharmacological or genetic inhibition of FoxO on metabolism and myogenesis in TDP-43 and FUS-silenced myoblasts. We treated all the different models of myoblasts with the compound AS1842856 at 30 nM during proliferation and let them differentiate, adding the compound at the same concentration every 2 days for 8 days. At the selected concentration, this compound binds selectively to the dephosphorylated FoxO1, and to less extent dephosphorylated FoxO3, interfering with DNA interaction and thereby resulting in inhibition of FoxO transactivation.
(§4) In addition, treatment with the AS1842856 inhibitor modifies the expression of some of the FoxO-regulated genes that are crucial for proper myogenic differentiation.

[6] = test system: control Drosophila strain UAS-Dicer2-+-Mef2-GAL4; assay: Climbing assay and lifespan of treated control flies; type: in vivo, Drosophila melanogaster; conditions: 30 μM
From the text: as §1, §2

primary ALS myoblasts = assay: Glycolytic flux (ECAR) of primary ALS myoblasts; type: cell-based, human
From the text: We looked at preliminary links between the findings in genetically-induced myoblasts and features of myoblasts from patients with ALS. To this aim, we cultured primary myoblasts obtained from muscle biopsies of two patients with ALS (patient 1 is sporadic [sALS] and patient 2 is familial [fALS]) and one control. […] Changes in TDP-43 localization were accompanied by an altered subcellular distribution of FoxO1, as reflected by increased levels of FoxO1 and FoxO3 in nuclei (FIG. 6A,C) and enhanced nuclear-to-cytosolic ratio in both patients (FIG. 6C). Remarkably, nuclear localizations of TDP-43 and FoxO1 were inversely associated in patient 2 (FIG. 6D).
As expected, alterations of FoxO1 in ALS myoblasts were accompanied by aberrant glycolytic flux, as indicated by lower ECAR values after addition of glucose to the media (FIG. 6F).

MYOD = MYOD expression in silenced myoblasts; type: cell-based, human; conditions: 30 nM; shTDP-43 and shFUS-treated myoblasts
From the text: as §3, §4

CCn1cc(C(=O)O)c(=O)c2c(N)c(F)c(NC3CCCCC3)cc21 [AS1842856]
muscle function (climbing activity) [1]: strong benefits on muscle function
Glu/Asp ratio [2]: increase Glu/Asp ratio to the levels of control myoblasts
Glu/Gln ratio [2]: without affecting Glu/Gln ratio
eclosion efficiency of pupas ([3]; UAS-Dicer2-iTbph^pkk(108254)-Mef2-GAL4): significantly ameliorates
pharate lethality in control flies ([3]; control flies): did not produce pharate lethality
mitigation of pharate lethality ([3]; iTbph^pkk(108254) Drosophila): approximately 20%
survival (Kaplan-Meier, median lifespan) [4]: higher survival rates
myogenic capacity (MYHC-positive myotubes, differentiation index) ([5]; FUS-silenced myoblasts): improved the myogenic capacity
myogenic capacity (MYHC-positive myotubes, differentiation index) ([5]; TDP-43 silenced myoblasts): rescued the myogenic arrest
myogenic capacity (MYHC-positive myotubes, differentiation index) ([5]; control myoblasts): little effects
toxicity on lifespan [6]: lack of toxicity
toxicity on motor function [6]: lack of toxicity
basal glycolysis rate (ECAR after glucose) (primary ALS myoblasts): corrected; also recorded: improved the basal glycolysis rate
expression of MYOD (MYOD): increased the expression of MYOD
